Active and inactive are the calls of the source. The calls are words filed in the database; no cut-off is given here.
Columns and labels:
[1] = tested on: MCF7; assay: Cytotoxicity against human MCF7 cells after 48 hrs by SRB assay; type: functional; settings: MCF7, 48 h
[2] = tested on: MCF7; assay: Selectivity index, ratio of IC50 for human MCF10A cells to IC50 for human MCF7 cells; type: functional
[3] = tested on: MDA-MB-231; assay: Cytotoxicity against human MDA-MB-231 cells after 48 hrs by SRB assay; type: functional; settings: MDA-MB-231, 48 h
[4] = tested on: MDA-MB-231; assay: Cytotoxicity against human MDA-MB-231 cells after 72 hrs by MTT assay; type: functional, cell-based; settings: MDA-MB-231, 72 h
[5] = tested on: MCF-10A; assay: Cytotoxicity against human MCF10A cells after 72 hrs by MTT assay; type: cell-based
[6] = Cytotoxicity against HEK cells at 0.25 to 64 ug after 72 hrs by MTT assay; type: cell-based; settings: human, hek293, 72 h
[7] = tested on: MCF7; assay: Cytotoxicity against human MCF7 cells after 72 hrs by MTT assay; type: functional, cell-based; settings: MCF7, 72 h
[8] = tested on: MCF-10A; assay: Selectivity index, ratio of IC50 for human MCF10A cells to IC50 for human MDA-MB-231 cells; type: functional
[9] = tested on: MCF7; assay: Cytotoxicity against human MCF7 cells at 4 uM after 72 hrs by MTT assay; type: functional
[10] = tested on: MCF7; assay: Down regulation of MEK1 protein expression in human MCF7 cells at 2 to 4 uM after 24 hrs by Western blotting analysis; type: functional, cell-based
[11] = tested on: MCF7; assay: Down regulation of Ras protein expression in human MCF7 cells at 2 to 4 uM after 24 hrs by Western blotting analysis; type: functional, cell-based
[12] = tested on: MCF7; assay: Down regulation of VEGF protein expression in human MCF7 cells at 2 to 4 uM after 24 hrs by Western blotting analysis; type: functional, cell-based
[13] = tested on: MCF7; assay: Induction of apoptosis in human MCF7 cells assessed as increase in caspase-9 activity at 2 uM after 24 hrs by fluorescence assay
[14] = biological target: Mitogen-activated protein kinase; ERK1/ERK2 (Homo sapiens) (UniProt P27361+P28482); assay: Inhibition of ERK1/2 phosphorylation in human MCF7 cells at 2 to 4 uM after 24 hrs by Western blotting analysis; type: cell-based
[15] = tested on: MCF7; assay: Down regulation of integrin alphaVbeta3 protein expression in human MCF7 cells at 2 to 4 uM after 24 hrs by Western blotting analysis

Chain of Mitogen-activated protein kinase; ERK1/ERK2 (Homo sapiens) (P27361 whole entry, looked up): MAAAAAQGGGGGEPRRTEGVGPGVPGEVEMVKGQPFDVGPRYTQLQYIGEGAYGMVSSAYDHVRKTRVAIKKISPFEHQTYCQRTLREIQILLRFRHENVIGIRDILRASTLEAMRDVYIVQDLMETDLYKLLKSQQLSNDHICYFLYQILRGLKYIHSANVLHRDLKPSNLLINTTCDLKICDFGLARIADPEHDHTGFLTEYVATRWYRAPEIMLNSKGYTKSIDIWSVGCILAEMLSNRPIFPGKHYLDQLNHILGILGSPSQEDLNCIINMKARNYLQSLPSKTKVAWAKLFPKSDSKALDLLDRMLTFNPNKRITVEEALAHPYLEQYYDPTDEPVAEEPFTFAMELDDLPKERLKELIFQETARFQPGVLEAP
Chain of Mitogen-activated protein kinase; ERK1/ERK2 (Homo sapiens) (P28482 whole entry, looked up): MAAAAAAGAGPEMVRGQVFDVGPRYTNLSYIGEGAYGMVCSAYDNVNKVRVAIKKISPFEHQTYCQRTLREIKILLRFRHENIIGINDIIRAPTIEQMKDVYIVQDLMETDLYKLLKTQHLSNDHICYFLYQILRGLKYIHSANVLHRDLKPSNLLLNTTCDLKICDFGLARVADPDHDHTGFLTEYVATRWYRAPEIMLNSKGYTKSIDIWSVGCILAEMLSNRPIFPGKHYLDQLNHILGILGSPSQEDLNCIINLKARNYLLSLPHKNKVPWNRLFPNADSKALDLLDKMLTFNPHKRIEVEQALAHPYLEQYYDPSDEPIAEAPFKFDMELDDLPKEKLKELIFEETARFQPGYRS

For `COc1ccc2nc(-c3ccc(-n4c(C)ccc4-c4ccc(F)cc4)cc3)sc2c1`, the GI50 [1] was 2.48 µM, the “Ratio IC50” value [2] was 13.67 and the GI50 [3] was 4.06 µM. For the same compound, the IC50 [4] was 13.8 µM, the IC50 [5] was 38.3 µM and the Activity [6] was “Non-toxic”. The IC50 [7] was 2.8 µM and the “Ratio IC50” value [8] was 2.77.
In the case of `COc1ccc(-c2ccc(C)n2-c2ccc(-c3nc4cc(OC)c(OC)c(OC)c4s3)cc2)cc1`, the GI50 [1] is reported as 1.23 µM, the “Ratio IC50” value [2] is reported as 19.945 and the GI50 [3] is reported as 2.24 µM. The IC50 [4] was 12.5 µM, the IC50 [5] was 43.9 µM and the Activity [9] was 50%. For the same compound, the Activity [6] was “Non-toxic”, the IC50 [7] was 2.2 µM and the “Ratio IC50” value [8] was 3.5.
For `Cc1ccc(-c2ccc(C)n2-c2ccc(-c3nc4ccc(F)cc4s3)cc2)cc1`, the GI50 [1] was 2.15 µM, the “Ratio IC50” value [2] was 11.3 and the GI50 [3] was 3.14 µM. The IC50 [4] was 16.7 µM, the IC50 [5] was 33.6 µM and the Activity [6] was “Non-toxic”. For the same compound, the IC50 [7] was 2.97 µM and the “Ratio IC50” value [8] was 2.01.
In the case of `COc1ccc(-c2ccc(C)n2-c2ccc(-c3nc4ccccc4s3)cc2)cc1`, the GI50 [1] is reported as 2.78 µM, the “Ratio IC50” value [2] is reported as 11.13 and the GI50 [3] is reported as 3.99 µM. The IC50 [4] was 14.8 µM, the IC50 [5] was 36.3 µM and the Activity [6] was “Non-toxic”. The IC50 [7] was 3.25 µM and the “Ratio IC50” value [8] was 2.44.
In the case of `Cc1ccc(-c2ccc(C)n2-c2ccc(-c3nc4ccccc4s3)cc2)cc1`, the GI50 [1] is reported as 2.5 µM, the “Ratio IC50” value [2] is reported as 9.1 and the GI50 [3] is reported as 4.4 µM. The IC50 [4] was 17.8 µM, the IC50 [5] was 30.6 µM and the Activity [6] was “Non-toxic”. The IC50 [7] was 3.1 µM and the “Ratio IC50” value [8] was 1.71.
For `Cc1ccc(-c2ccc([N+](=O)[O-])cc2)n1-c1ccc(-c2nc3ccc(F)cc3s2)cc1`, the GI50 [1] was 0.918 µM, the “Ratio IC50” value [2] was 16.4 and the GI50 [3] was 1.67 µM. For the same compound, the IC50 [4] was 17 µM, the IC50 [5] was 39 µM and the Activity [6] was “Non-toxic”. For the same compound, the IC50 [7] was 2.37 µM and the “Ratio IC50” value [8] was 2.29.
With `COc1cc2nc(-c3ccc(-n4c(C)ccc4-c4ccc(F)cc4)cc3)sc2c(OC)c1OC` the GI50 [1] was 2.67 µM, the “Ratio IC50” value [2] was 14.83 and the GI50 [3] was 3.94 µM. For the same compound, the IC50 [4] was 13.1 µM, the IC50 [5] was 43.2 µM and the Activity [6] was “Non-toxic”. For the same compound, the IC50 [7] was 2.91 µM and the “Ratio IC50” value [8] was 3.29.
For `COc1ccc2nc(-c3ccc(-n4c(C)ccc4-c4ccc([N+](=O)[O-])cc4)cc3)sc2c1`, the GI50 [1] was 3.17 µM, the “Ratio IC50” value [2] was 25.3 and the GI50 [3] was 4.56 µM. The IC50 [4] was 12.7 µM, the IC50 [5] was 34.9 µM and the Activity [6] was “Non-toxic”. The “Ratio IC50” value [8] was 2.74.
For `COc1ccc2nc(-c3ccc(-n4c(C)ccc4-c4ccc(C)cc4)cc3)sc2c1`, the GI50 [1] was 2.57 µM, the “Ratio IC50” value [2] was 11.92 and the GI50 [3] was 4.01 µM. The IC50 [4] was 20.5 µM, the IC50 [5] was 34 µM and the Activity [6] was “Non-toxic”. For the same compound, the IC50 [7] was 2.85 µM and the “Ratio IC50” value [8] was 1.65.
With `Cc1ccc(-c2ccc(F)cc2)n1-c1ccc(-c2nc3ccc(F)cc3s2)cc1` the GI50 [1] was 1.79 µM, the “Ratio IC50” value [2] was 13.48 and the GI50 [3] was 3.03 µM. For the same compound, the IC50 [4] was 14.1 µM, the IC50 [5] was 37.8 µM and the Activity [6] was “Non-toxic”. For the same compound, the IC50 [7] was 2.8 µM and the “Ratio IC50” value [8] was 2.68.
For `COc1cc(-c2ccc(C)n2-c2ccc(-c3nc4ccccc4s3)cc2)cc(OC)c1OC`, the GI50 [1] was 2.34 µM, the “Ratio IC50” value [2] was 8.87 and the GI50 [3] was 3.45 µM. For the same compound, the IC50 [4] was 16 µM, the IC50 [5] was 38.8 µM and the Activity [6] was “Non-toxic”. For the same compound, the IC50 [7] was 4.37 µM and the “Ratio IC50” value [8] was 2.42.
For `COc1cc([C@@H]2c3cc4c(cc3[C@@H](O[C@@H]3O[C@@H]5CO[C@@H](C)O[C@H]5[C@H](O)[C@H]3O)[C@H]3COC(=O)[C@H]23)OCO4)cc(OC)c1O` [ETOPOSIDE], the GI50 [1] was 0.87 µM, the “Ratio IC50” value [2] was 30.21 and the Activity [10] was “Active”. The GI50 [3] was 1.67 µM, the Activity [11] was “Active” and the IC50 [4] was 1.5 µM. The Activity [12] was “Active”, the IC50 [5] was 36.3 µM and the Activity [13] was “Active”. For the same compound, the inhibition [14] was “Active”, the Activity [15] was “Active” and the IC50 [7] was 1.2 µM. For the same compound, the “Ratio IC50” value [8] was 24.17.
In the case of `COc1ccc(-c2ccc(C)n2-c2ccc(-c3nc4ccc(F)cc4s3)cc2)cc1`, the GI50 [1] is reported as 2.12 µM, the “Ratio IC50” value [2] is reported as 14.85 and the GI50 [3] is reported as 3.07 µM. For the same compound, the IC50 [4] was 19 µM, the IC50 [5] was 37.8 µM and the Activity [6] was “Non-toxic”. For the same compound, the IC50 [7] was 2.54 µM and the “Ratio IC50” value [8] was 1.98.
With `COc1cc(-c2ccc(C)n2-c2ccc(-c3nc4ccc(F)cc4s3)cc2)cc(OC)c1OC` the GI50 [1] was 1.41 µM, the “Ratio IC50” value [2] was 16.93 and the GI50 [3] was 3 µM. For the same compound, the IC50 [4] was 15.4 µM, the IC50 [5] was 40 µM and the Activity [6] was “Non-toxic”. For the same compound, the IC50 [7] was 2.36 µM and the “Ratio IC50” value [8] was 2.6.
For `Cc1ccc(-c2ccc(F)cc2)n1-c1ccc(-c2nc3ccccc3s2)cc1`, the GI50 [1] was 2.62 µM, the “Ratio IC50” value [2] was 12.57 and the GI50 [3] was 4.34 µM. For the same compound, the IC50 [4] was 11.8 µM, the IC50 [5] was 40 µM and the Activity [6] was “Non-toxic”. The IC50 [7] was 3.18 µM and the “Ratio IC50” value [8] was 3.4.
For `Cc1ccc(-c2ccc([N+](=O)[O-])cc2)n1-c1ccc(-c2nc3ccccc3s2)cc1`, the GI50 [1] was 2.54 µM, the “Ratio IC50” value [2] was 12.47 and the GI50 [3] was 3.9 µM. The IC50 [4] was 12.1 µM, the IC50 [5] was 38.8 µM and the Activity [6] was “Non-toxic”. The IC50 [7] was 3.11 µM and the “Ratio IC50” value [8] was 3.2.
In the case of `COc1ccc2nc(-c3ccc(-n4c(C)ccc4-c4cc(OC)c(OC)c(OC)c4)cc3)sc2c1`, the GI50 [1] is reported as 0.92 µM, the “Ratio IC50” value [2] is reported as 24.84 and the Activity [10] is reported as “Active”. For the same compound, the GI50 [3] was 1.76 µM, the Activity [11] was “Active” and the IC50 [4] was 12.9 µM. For the same compound, the Activity [12] was “Active”, the IC50 [5] was 37.8 µM and the Activity [9] was 50%. For the same compound, the Activity [13] was “Active”, the inhibition [14] was “Active” and the Activity [6] was “Non-toxic”. For the same compound, the Activity [15] was “Active”, the IC50 [7] was 1.52 µM and the “Ratio IC50” value [8] was 2.92.
In the case of `COc1cc2nc(-c3ccc(-n4c(C)ccc4-c4ccc(C)cc4)cc3)sc2c(OC)c1OC`, the GI50 [1] is reported as 2.91 µM, the “Ratio IC50” value [2] is reported as 13.66 and the GI50 [3] is reported as 4.14 µM. For the same compound, the IC50 [4] was 12.3 µM, the IC50 [5] was 42.5 µM and the Activity [6] was “Non-toxic”. The IC50 [7] was 3.11 µM and the “Ratio IC50” value [8] was 3.45.
With `COc1ccc(-c2ccc(C)n2-c2ccc(-c3nc4ccc(OC)cc4s3)cc2)cc1` the GI50 [1] was 3.09 µM, the “Ratio IC50” value [2] was 6.36 and the GI50 [3] was 4.12 µM. For the same compound, the IC50 [4] was 12.7 µM, the IC50 [5] was 30.6 µM and the Activity [6] was “Non-toxic”. The IC50 [7] was 4.83 µM and the “Ratio IC50” value [8] was 2.23.

Reference: ChEMBL document CHEMBL2429737, “Synthesis and study of benzothiazole conjugates in the control of cell proliferation by modulating Ras/MEK/ERK-dependent pathway in MCF-7 cells” (Bioorg Med Chem Lett, 2013)
